Reference: PMC5770468, “Cardiac glycoside/aglycones inhibit HIV-1 gene expression by a mechanism requiring MEK1/2-ERK1/2 signaling” (Scientific Reports, 2018)

Assays:
[1] = tested on: HIV-1 gene expression; assay: HIV-1 gene expression in CD4+ T-cell line 24ST1NLESG, p24CA ELISA; type: cell-based, HIV-1 (pNL4-3); conditions: PMA induced, 24 h, p24CA ELISA of supernatants
Procedure: Drug/compounds were tested for effects on HIV-1 gene expression using inducible Tet-ON HIV-1 cell lines [HeLa rtTA-HIV-ΔMls or rtTA-HIV(Gag-GFP)] containing a HIV-1 (LAI) provirus activatable by Dox or tetracycline transactivator (tTA)[69]. The rtTA-HIV-ΔMls provirus was modified and used as previously reported[9]–[11],[70]. The rtTA-HIV(Gag-GFP) provirus was generated by deletion of the PR and RT coding regions within pol and insertion of GFP to the 3′ of gag, creating GFP fused to the C-terminal of Gag. After 4 h of drug/compound treatment, HIV-1 gene expression was activated with Dox (2 μg/mL) or tTA (described below). Equal concentrations of DMSO were present in each experiment. After ~20 h, cells and media were harvested to monitor the effects of drug/compound treatments as described below. HIV-1 gene expression was quantified via p24^CA ELISA or monitoring Gag-GFP fluorescence in cells as described below. In parallel, cell viability of treatments were assessed by XTT assay (Sigma-Aldrich, #TOX2). […]
treatment of 24ST1NLESG cells (n ≥ 4, mean, s.e.m.). […] Cell lysates were analyzed by western blot with antibodies specific for (c) HIV-1 structural protein, Gag, and (d) viral regulatory factor, Tat. […]

[2] = tested on: clinical strains of HIV; set-up: method as in PMID 23555254, PMID 17706876; conditions: cited from earlier work

Row | Compound | HIV-1 gene expression in 24ST1NLESG cells [1] | effective ex vivo concentration, fold below serum concentration of patients treated for heart conditions (digoxin) [2]
1 | C[C@H]1O[C@@H](O[C@H]2[C@@H](O)C[C@H](O[C@H]3[C@@H](O)C[C@H](O[C@H]4CC[C@@]5(C)[C@H](CC[C@@H]6[C@@H]5CC[C@]5(C)[C@@H](C7=CC(=O)OC7)CC[C@]65O)C4)O[C@@H]3C)O[C@@H]2C)C[C@H](O)[C@@H]1O [Digitoxin] | Dose-dependent inhibition | 
2 | C[C@H]1O[C@@H](O[C@H]2[C@@H](O)C[C@H](O[C@H]3[C@@H](O)C[C@H](O[C@H]4CC[C@@]5(C)[C@H](CC[C@@H]6[C@@H]5C[C@@H](O)[C@]5(C)[C@@H](C7=CC(=O)OC7)CC[C@]65O)C4)O[C@@H]3C)O[C@@H]2C)C[C@H](O)[C@@H]1O [Digoxin] |  | 2–6 fold
